According to patent US6939876B2, “Prevention of addiction in pain management” (priority 2001, dated 2005):

Legend:
[1] = tested on: extracellular DA concentrations in the nucleus accumbens (NAcc); assay: In vivo microdialysis: morphine-induced extracellular DA in the nucleus accumbens of freely moving rats; parameters: species or system Sprague-Dawley rats
Text: The effects of increased endogenous GABA activity on morphine-induced extracellular DA concentrations in the nucleus accumbens (NAcc) of freely moving rats was explored.
All animals there used under an IACUC-approved protocol and with strict adherence to the NIH guidelines. Adult male Sprague-Dawley rats (200-300 g, Taconic Farms), housed in the animals care facility under 12:12 light/dark conditions, were placed into 6 groups (n=3-6), anesthetized and siliconized guide cannulae were stereotactically implanted into the right NAcc (2.0 mm anterior and 1.0 mm lateral to bregms, and 7.0 mm ventral to the cortical surface) and prefrontal cortex (PFC) at least 4 days prior to study. Microdialysis probes (2.0 mm, Bioanalytical Systems, BAS, West Lafayette. Ind.) were positioned within the guide cannulae and artificial cerebrospinal fluid (ACSF. 155.0 mM NA^−, 1.1 mM Ca^2−, 2.9 mM K^−, 132.76 mM Cl^−, and 0.83 mM Mg^2−) was administered through the probe using a CMA/100 microinfusion pump (BAS) at a flow rate of 2.0 μl/min.
Animals were placed in bowls, and probes were inserted and flushed with ACSF overnight. On the day of the study. a minimum of three samples were injected to determine baseline stability. Samples were collected for 20 min. and injected on-line (CMA/160, BAS). The average dopamine concentration of these three stable samples was defined as control (100%). and all subsequent treatment values were transformed to a percentage of that control. Upon establishing a stable baseline, the morphine was administered by intraperitoneal (i.p.) injection. The high performance liquid chromatography (HPLC) system consists of a BAS reverse-phase column (3.0 μC-18), a BAS LC-4C electrochemical transducer with a dual/glassy carbon electrode set at 650 mV, a computer that analyzes data on-line using a commercial software package (Chromograph Bioanalytical Systems), and a dual pen chart recorder. The mobile phase (flow rate 1.0 ml/min) consisted of 7.0% methanol, 50 mM sodium phosphate monobasic, 1.0 mM sodium octyl sulfate, and 0.1 mm […], pH 4.0. DA eluted at 7.5 min.
Gamma-vinyl GABA (GVG), an irreversible inhibitor of GABA-transaminase, was administered by intraperitoneal injection 2.5 hours prior to morphine (7 mg/kg). In all studies, animals were placed in the microdialysis bowls the night before the experiment and artificial cerebrospinal fluid (ACSF) was perfused through the microdialysis probes at a flow rate of 2.0 μl/min. At the end of each study, animals were sacrificed and their brains were removed and sectioned for probe placement verification
Levels of extracellular DA were sampled from the NAcc continuously using a stereoaxically implanted probe. Morphine alone increases DA concentrations 50% above baseline in the NAcc (p<0.01, T=3.79).

male Sprague-Dawley rats [2] = assay: Hot plate test (53 degrees Centigrade), latency to forepaw licking; assay type: in vivo; conditions: for Licking latency: mean ± S.E.M., 10 rats
Description: The effect of GVG on the analgesic potency of morphine in male Sprague-Dawley rats was examined using the hot plate test. In this paradigm, animals are treated and placed on a hot plate at a temperature of 53 degrees Centigrade and the latency to licking of one of the forepaws was measured. This test is used as screen for agents that have moderate to significant analgesic action as these drugs will increase latency to forepaw licking.
The rats were treated with either vehicle or GVG 2.5 hours prior to receiving either vehicle or morphine. Animals were given either vehicle or morphine 30 minutes prior to placing them on a hot plate at a constant temperature of 53 degrees Centigrade. Analgesic potency was assessed by measuring the latency to forepaw licking after placement on the hot plate. A total of 10 rats were examined for each treatment group.

male Sprague-Dawley rats [3] = assay: Heroin-induced conditioned place preference (CPP), expression phase; assay type: in vivo; conditions: for Time spent in chambers, Paired / Time spent in chambers, Unpaired: mean ± S.E.M.
Text: In all rodent studies, male Sprague-Dawley rats were used (200-225 g. Taconic farms, Germantown, N.Y.). Animals were allowed to acclimate to the animal housing facility for at least 5 days prior to beginning the experiments. Conditioned place preference (CPP) chambers were used as previously described (Lepore et al., 1995), except instead of one chamber being entirely white and the other black, one chamber was entirely light blue with a stainless steel floor and the second chamber was light blue with horizontal black stripes (2.5 cm wide) spaced 3.8 cm apart with a smooth plexiglass floor. In all CPP studies with GVG, the saline volume was (1 ml/kg), and the heroin doses were 1.5 mg/kg. The saline, heroin and GVG were all injected intraperitonealy (i.p.). The conditioning procedure for the acquisition phase consisted of 12 sessions carried out consecutively over 12 days.
The CPP pairings were: 1) saline/saline 2) saline/heroin 3) GVG/saline 4) saline/heroin and GVG. The animals in each group were randomly assigned to a 2×2 factorial design ,with one factor being the pairing chamber and the other factor being the order of conditioning. The animals that received either saline or heroin were injected and confined to the appropriate compartment for 30 minutes. The GVG injections were given 3 hours before saline or heroin injection and subsequent placement of the animals in the appropriate chamber. This was done as it has been shown that GABA levels reach maximal values 3 to 4 hours following GVG administration.
On the test day (day 12), neither drugs nor saline were administered and the animal was allowed to move freely between both chambers for fifteen minutes. The amount of time spent in each chamber was recorded using an automated infrared beam electronically coupled to a timer. For the expression phase of CPP to heroin, the animals were habituated and conditioned to heroin as described in the acquisition studies, but no animals in the expression studies were given GVG on conditioning days. On the test day (day 12), the animals being tested in the expression phase, unlike the animals in the acquisition phase, received either saline or GVG 2.5 hours before they were placed in the apparatus and allowed free access to both chambers for 15 minutes.

[4] = pairing Vehicle/Heroin, GVG 300 mg/kg on test day (2.5 h before test)
[5] = pairing Vehicle/Vehicle, GVG 300 mg/kg on test day
[6] = pairing Vehicle/Heroin (heroin 1.5 mg/kg i.p.), vehicle on test day

## C=CC(N)CCC(=O)O (stereo not drawn) [GVG, 4-amino-5-hexanoic acid]
[1]; GVG 150 mg/kg i.p. 2.5 hours prior to morphine 7 mg/kg
  Inhibition of the DA response to morphine in the NAcc: no significant inhibition
[1]; GVG 300 mg/kg i.p. 2.5 hours prior to morphine 7 mg/kg, p<0.01
  Attenuation of the DA response to morphine in the NAcc: 62%
[1]; GVG 500 mg/kg i.p. 2.5 hours prior to morphine 7 mg/kg, p<0.001
  Attenuation of the DA response to morphine in the NAcc: 67%
Male Sprague-Dawley rats [2]; GVG 300 mg/kg i.p. 2.5 hrs prior to morphine 10 mg/kg i.p.
  Effect of GVG on the analgesic potency of morphine: does not alter the analgesic potency of morphine
Male Sprague-Dawley rats [2]; pretreatment GVG 300 mg/kg (2.5 h before), treatment morphine 10 mg/kg
  Licking latency: 27 ± 2.9 s
Male Sprague-Dawley rats [2]; pretreatment GVG 300 mg/kg (2.5 h before), treatment vehicle 1 ml/kg
  Licking latency: 17 ± 1.4+ sec
Male Sprague-Dawley rats [3]; GVG 300 mg/kg on test day
  Effect on expression of heroin-induced CPP: blocked the expression of heroin-induced CPP
Male Sprague-Dawley rats [3]; [4]
  Time spent in chambers, Paired: 6.6 ± 0.7 min
  Time spent in chambers, Unpaired: 8.4 ± 0.7 min
Male Sprague-Dawley rats [3]; [5]
  Time spent in chambers, Paired: 7.4 ± 0.3 min
  Time spent in chambers, Unpaired: 7.6 ± 0.3 min

## CC(=O)Oc1ccc2c3c1O[C@H]1[C@@H](OC(C)=O)C=C[C@H]4[C@@H](C2)N(C)CC[C@@]341 [Heroin, heroin]
Male Sprague-Dawley rats [3]; [6]
  Time spent in chambers, Paired: 10.9 ± 0.4 min
  Time spent in chambers, Unpaired: 4.1 ± 0.4 min

## CN1CC[C@]23c4c5ccc(O)c4O[C@H]2[C@@H](O)C=C[C@H]3[C@H]1C5 [Morphine, morphine]
[1]; morphine alone, 7 mg/kg i.p., baseline = 100%, p<0.01
  Increase of DA concentrations above baseline in the NAcc: 50%
Male Sprague-Dawley rats [2]; pretreatment vehicle 1 ml/kg, treatment morphine 10 mg/kg 30 min before hot plate
  Licking latency: 27 ± 3.0 s
